Where a SMILES comes first, the peptide text is derived from it. Bridges are numbered along the chain shown (N, C = ends). Where no end group is shown, it is not given here. [ ]: non-standard residue; d: D form. S5 = C=CCCC[C@](C)(N)C(=O)O; Nle = CCCC[C@H](N)C(=O)O
Biological target: T1, 5-HT2AR–CB1R heteromers (Homo sapiens, UniProt P28223)
T1 construct: expressed in transfected cells; host or cells: HEK293 (ATCC CRL-1573), transient reverse transfection
Experiment: NanoBiT BiLC peptide screening assay (LgBiT–CB1R + SmBiT–5-HT2AR)
Type: cell-based
Conditions: HEK293 cells transiently expressing LgBiT–CB1R and SmBiT–5-HT2AR, preincubated 1 h with 4 μM peptide, luminescence normalized to vehicle, n ≥ 5
Experimental: Figure 5. Identification of a small-stapled TM peptide disrupting 5-HT2AR–CB1R heteromers. A, schematic representation of the NanoBiT assay using N-terminally labeled constructs. In B, HEK293 cells transiently expressing the LgBT–CB1R and SmBiT–5-HT2AR complementary pairs were preincubated for 1 h at 37 °C with the indicated peptides (4 μM) or vehicle prior to luminescence recording. Data are mean RLU ± S.E. (error bars) (n ≥ 5) percentage of luminescence normalized to vehicle-treated cells. Statistical significance was evaluated by one-way ANOVA followed by Bonferroni post hoc tests, indicating significant differences over vehicle-treated cells (***, p ≤ 0.001; ****, p ≤ 0.0001) and for peptide 10 over its related peptides (####, p ≤ 0.0001). Peptide 10 potency (C) was evaluated as in A over increasing peptide concentrations (bottom) (n = 3). Alternatively, to assess the kinetics of the peptide 10–driven heteromer disruption (D), prior to the administration of the peptide, the cells were preincubated with substrate, and the luminescence was recorded over the following 30 min. Data are mean RLU ± S.E. (n ≥ 3) percentage of luminescence normalized to vehicle-treated cells.
To assess GPCR protein–protein interactions with the NanoBiT technology, HEK293 cells (50,000 cells/well) were seeded in poly-D-lysine–coated white clear bottom 96-well plates and reverse-transfected (see above) with the plasmids encoding the complementary NanoBiT hemiprotein fragments. For orientation screenings, cells were transfected with two different concentrations (50 and 100 ng/well) of each receptor alone or in combination with the investigated partner (see figure legends) in the presence of empty vector (pcDNA3.1(+)) to normalize the total amount of DNA/well. For studies in the presence of increasing nontagged receptor competitors, 100 ng of each receptor pair (CB1R LgBiT + CB1R SmBiT, 5-HT2AR LgBiT + 5-HT2AR SmBiT, and 5-HT2AR LgBiT + CB1R SmBiT) were co-transfected with increasing concentrations of the different nontagged constructs (from 0 to 300 ng/well), and the total amounts of DNA/well were normalized with empty vector (pcDNA3.1(+)). For the screening of stapled peptides, 50 ng/well of both LgBiT CB1R and SmBiT 5-HT2AR were reverse-transfected as detailed previously. 24 h post- transfection, the cell culture medium was removed, and the cells were starved in FBS-free DMEM for 4 h at 37 °C in a 5% CO2 humidified atmosphere. The cell culture medium was replaced by 100 μl of NanoBiT assay buffer (same as for cAMP measurements), and the plates were pre-equilibrated for 1 h at RT in the dark. When peptide pretreatment was required, peptides were added over this pre-equilibration step, except when studying inhibition kinetics, when the peptides were administered immediately after the baseline luminescence recording. 25 μl/well of a 5× solution of the Nano-Glo® live cell reagent containing the cell-permeable furimazine substrate dissolved in Nano-Glo® LCS dilution buffer were added, and the luminescence was immediately monitored in CLARIOstar® Multimode Plate Reader (BMG Labtech) with no lens (1-s integration time/well for 1 h every minute).
Dose–response curves were fitted using a four-parameter logistic nonlinear regression mode. Peptide stability data were fitted using a nonlinear regression mode for dissociation kinetics. All statistical tests, curve fitting, and graphing were performed using GraphPad Prism 8 (GraphPad Software, La Jolla, CA).

T1 sequence (P28223 2-471, one chain of several): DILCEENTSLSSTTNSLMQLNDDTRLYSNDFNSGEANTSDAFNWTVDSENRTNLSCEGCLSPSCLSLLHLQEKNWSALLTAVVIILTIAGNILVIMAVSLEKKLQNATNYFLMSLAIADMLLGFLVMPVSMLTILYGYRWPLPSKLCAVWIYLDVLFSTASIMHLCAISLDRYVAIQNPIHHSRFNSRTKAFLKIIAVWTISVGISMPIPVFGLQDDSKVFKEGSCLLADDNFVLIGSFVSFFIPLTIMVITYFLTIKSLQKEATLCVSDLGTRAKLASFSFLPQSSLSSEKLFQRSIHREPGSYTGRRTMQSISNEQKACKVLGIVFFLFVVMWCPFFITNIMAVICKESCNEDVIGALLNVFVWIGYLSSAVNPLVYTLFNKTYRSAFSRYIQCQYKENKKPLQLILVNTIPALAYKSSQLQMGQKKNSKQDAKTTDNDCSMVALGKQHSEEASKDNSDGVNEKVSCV

Row | Compound | effect on NanoBiT luminescence (heteromer disruption)
1 | CCCC[C@H](NC(=O)[C@]1(C)CCC/C=C\CCC[C@](C)(NC(=O)[C@H](Cc2ccccc2)NC(=O)[C@H](CC(C)C)NC(=O)[C@H](CC(C)C)NC(=O)[C@H](CC(C)C)NC(=O)[C@@H](N)C(C)C)C(=O)N[C@@H](C(C)C)C(=O)N[C@@H](Cc2ccc(O)cc2)C(=O)N[C@@H](C)C(=O)N1)C(=O)N[C@@H](Cc1ccc(O)cc1)C(=O)N[C@H](C(=O)N[C@@H](CC(C)C)C(=O)N[C@@H](Cc1c[nH]c2ccccc12)C(N)=O)[C@@H](C)CC [Peptide 8] (H-VLLLF[S5]VYA[S5][Nle]YILW-NH2; staple (Z) 6-10) | not as efficient as compound 10
2 | C=CCCC[C@](C)(NC(=O)[C@H](Cc1ccc(O)cc1)NC(=O)[C@@H](N)C(C)C)C(=O)N[C@@H](Cc1ccc(O)cc1)C(=O)N[C@@H](CCCC)C(=O)N[C@@](C)(CCCC=C)C(=O)N[C@H](C(=O)N[C@@H](CC(C)C)C(=O)N[C@@H](Cc1c[nH]c2ccccc12)C(N)=O)[C@@H](C)CC [Peptide 11] (H-VY[S5]Y[Nle][S5]ILW-NH2) | neither the version lacking the TAT amino acid sequence, compound 9, nor the nonstaple, compound 11, peptides induced any change
3 | ETYLMFWIGVTSVLLLFIVYAYMYILWGRKKRRQRRR [TM5-TAT, reference compound] | decrease in the luminescence readout
4 | GRKKRRQRRRKTLVLILVVLIICWGPLLAIMVY [TM6-TAT, reference compound] | decrease in the luminescence readout
